Patent US8389557B2, “Triazole derivatives useful as Axl inhibitors” (Rigel Pharmaceuticals, Inc., priority 2005, dated 2013)

Target: T1, Axl (Homo sapiens, UniProt P30530)
T1 construct: endogenous in cells; host or cells: HeLa cells
T1 sequence (P30530 26-894): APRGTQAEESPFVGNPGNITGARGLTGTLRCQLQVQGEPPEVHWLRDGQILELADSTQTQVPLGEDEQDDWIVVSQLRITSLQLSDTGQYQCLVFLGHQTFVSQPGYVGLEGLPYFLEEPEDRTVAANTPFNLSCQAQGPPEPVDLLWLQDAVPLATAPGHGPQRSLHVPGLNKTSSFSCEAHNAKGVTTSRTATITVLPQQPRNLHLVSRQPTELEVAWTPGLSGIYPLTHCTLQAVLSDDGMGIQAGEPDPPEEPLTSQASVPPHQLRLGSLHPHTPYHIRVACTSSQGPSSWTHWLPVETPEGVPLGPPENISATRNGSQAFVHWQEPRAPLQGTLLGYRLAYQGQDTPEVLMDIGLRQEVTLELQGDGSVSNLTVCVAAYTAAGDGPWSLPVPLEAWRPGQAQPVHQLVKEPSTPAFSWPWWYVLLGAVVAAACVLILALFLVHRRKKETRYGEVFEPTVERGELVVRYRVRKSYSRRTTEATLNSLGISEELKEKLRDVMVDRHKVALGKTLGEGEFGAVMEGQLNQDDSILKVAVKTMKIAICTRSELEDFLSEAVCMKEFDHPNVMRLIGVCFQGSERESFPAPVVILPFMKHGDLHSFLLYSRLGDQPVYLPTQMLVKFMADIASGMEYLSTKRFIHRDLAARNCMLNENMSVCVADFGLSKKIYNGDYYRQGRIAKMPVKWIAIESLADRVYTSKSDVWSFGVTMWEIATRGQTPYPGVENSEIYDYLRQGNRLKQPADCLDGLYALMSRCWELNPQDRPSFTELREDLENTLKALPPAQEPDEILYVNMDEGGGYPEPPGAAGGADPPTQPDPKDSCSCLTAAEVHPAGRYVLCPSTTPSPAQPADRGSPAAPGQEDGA
Test: Phospho-Akt in-cell Western assay (inhibition of Axl activity)
Format: cell-based
Procedure, shortened: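 HeLa cells on poly-L-lysine, starved 24 h in 0.5% FCS DMEM with Axl/Fc 500 ng/mL, pre-treated with compound 1 h at 37° C. Axl stimulated 5 min by anti-Axl/anti-mouse antibody cross-linking. Fixed cells probed with anti-phospho-Akt and HRP secondary, chemiluminescence read.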

[1] = inhibition of Axl activity, Table 1
[2] = Table 2, Hela cells, Axl antibody cross-linking stimulation, phospho-Akt chemiluminescence
[3] = inhibition of Axl activity, phospho-Akt in-cell Western assay, Table 1
[4] = Table 5, Hela cells, Axl antibody cross-linking stimulation, phospho-Akt chemiluminescence
[5] = Table 3, Hela cells, Axl antibody cross-linking stimulation, phospho-Akt chemiluminescence

| Structure (SMILES) | IC50 [1] [µM] | IC50 [3] [µM] | further results |
| --- | --- | --- | --- |
| COc1cccc(NC(=O)n2nc(Nc3ccc(OCCN4CCCC4)cc3)nc2N)c1 [compound 32, 5-amino-N-(3-methoxyphenyl)-3-[4-[2-(pyrrolidin-1-yl)ethoxy]phenylamino]-1H-1,2,4-triazole-1-carboxamide] |  |  | IC50 (Table 7, Hela cells, Axl antibody cross-linking stimulation, phospho-Akt chemiluminescence): < 1 µM |
| Nc1nc(Nc2ccc3c(c2)OCCO3)nn1C(=O)c1cccc(OCCC2OCCO2)c1 [compound 210] | 1 to 10 |  |  |
| Nc1nc(Nc2ccc3c(c2)OCCO3)n(C(=O)c2ccc(OCCC3OCCO3)cc2)n1 [compound 213] |  |  | IC50 [2]: > 20 µM |
| CC(C)Oc1ccc(C(=O)n2nc(Nc3ccc(OCCN4CCCC4=O)cc3)nc2N)cc1 [compound 337, 5-amino-1-(4-(iso-propoxy)phenyl)carbonyl-3-[4-[2-(pyrrolidin-2-on-1-yl)ethoxy]phenylamino]-1H-1,2,4-triazole] |  | < 1 |  |
| Nc1nc(Nc2ccc(OCCN3CCCC3)cc2)nn1C(=O)c1cccc(-c2nccs2)c1 [compound 310, 5-amino-1-(3-(thiazol-2-yl)phenyl)carbonyl-3-[4-[2-(pyrrolidin-1-yl)ethoxy]phenylamino]-1H-1,2,4-triazole] |  | < 1 |  |
| CC(C)Oc1ccc(Nc2nc(N)nn2C(=O)c2ccc3c(c2)NC(=O)C(C)(C)O3)cc1 [compound 66, 3-amino-1-(2,2-dimethyl-2H-benzo[b][1,4]oxazin-3(4H)-on-6-yl)carbonyl-5-(4-(iso-propoxy)phenyl)amino-1H-1,2,4-triazole] |  |  | IC50 (Table 4, Hela cells, Axl antibody cross-linking stimulation, phospho-Akt chemiluminescence): 1 to 10 µM |
| CS(=O)(=O)N1CCC(Nc2nc(N)n(C(=O)c3ccc(N4CCOCC4)cc3)n2)CC1 [compound 399, 5-amino-1-(4-(morpholin-4-yl)phenyl)carbonyl-3-(1-methylsulfonylpiperidin-4-yl)amino-1H-1,2,4-triazole] |  |  | IC50 [4]: > 20 µM |
| Nc1nc(Nc2ccc3c(c2)OCCO3)n(C(=O)c2ccccc2)n1 [compound 92, 3-amino-5-(1,4-benzodioxan-6-yl)amino-1-phenylcarbonyl-1H-1,2,4-triazole] |  |  | IC50 [2]: 1 to 10 µM |
| CCOC(=O)c1cc2cc(Nc3nc(N)n(C(=O)c4cccc(C)c4)n3)ccc2o1 [compound 219, 5-amino-3-[2-(ethoxycarbonyl)benzofuran-5-yl]amino-1-(3-methylphenyl)carbonyl-1H-1,2,4-triazole] |  |  | IC50 [4]: 1 to 10 µM |
| Cc1ccc(C(=O)n2nc(Nc3cccc(F)c3)nc2N)cc1 [compound 124, 5-amino-3-[3-(fluoro)phenylamino]-1-(4-(methyl)phenyl)carbonyl-1H-1,2,4-triazole] | 10 to 20 |  |  |
| Nc1nc(Nc2ccc(OCCN3CCCC3)cc2)nn1C(=O)c1ccc(-c2csnn2)cc1 [compound 280, 5-amino-1-(4-(1,2,3-thiadiazol-4-yl)phenyl)carbonyl-3-[4-[2-(pyrrolidin-1-yl)ethoxy]phenylamino]-1H-1,2,4-triazole] |  | < 1 |  |
| Cc1cccc(C(=O)n2nc(Nc3ccc4c(c3)NCCO4)nc2N)c1 [compound 215, 5-amino-3-[(3,4-dihydrobenzo[1,4]oxazin-6-yl)amino]-1-(3-methylphenyl)carbonyl-1H-1,2,4-triazole] |  |  | IC50 [4]: > 20 µM |
| COc1cc(Nc2nc(N)n(C(=O)c3cccc(N4CCOCC4)c3)n2)ccc1OCCN1CCCC1 [compound 344, 5-amino-1-(3-(morpholin-4-yl)phenyl)carbonyl-3-[3-methoxy-4-[2-(pyrrolidin-1-yl)ethoxy]phenylamino]-1H-1,2,4-triazole] |  | < 1 |  |
| Cc1ccc(C(=O)n2nc(Nc3ccccc3)nc2N)cc1 [compound 137, 5-amino-1-(4-(methyl)phenyl)carbonyl-3-phenylamino-1H-1,2,4-triazole] | > 20 |  |  |
| Nc1nc(Nc2ccc3c(c2)OCCO3)nn1C(=O)c1cccc(F)c1 [compound 105, 5-amino-3-(1,4-benzodioxan-6-yl)amino-1-(3-(fluoro)phenyl)carbonyl-1H-1,2,4-triazole] | > 20 |  |  |
| CN(C)CCOc1ccc(Nc2nc(N)n(C(=O)c3ccc(N(C)C)cc3)n2)cc1 [compound 87, 5-amino-3-[4-[2-(dimethylamino)ethoxy]phenylamino]-1-(4-(dimethylamino)phenyl)carbonyl-1H-1,2,4-triazole] |  | < 1 |  |
| Cc1cccc(C(=O)n2nc(Nc3ccc4sncc4c3)nc2N)c1 [compound 259, 5-amino-3-(1,2-benzisothiazol-5-yl)amino-1-(3-methylphenyl)carbonyl-1H-1,2,4-triazole] |  |  | IC50 [4]: > 20 µM |
| CC(C)Oc1ccc(C(=O)n2nc(Nc3cccc(OCC(F)(F)F)c3)nc2N)cc1 [compound 139, 5-amino-1-(4-(iso-propoxy)phenyl)carbonyl-3-[3-(2,2,2-trifluoroethoxy)phenylamino]-1H-1,2,4-triazole] | > 20 |  |  |
| COc1cccc(C(=O)n2nc(Nc3ccc(OCCN4CCCCC4)cc3)nc2N)c1 [compound 80, 5-amino-1-(3-(methoxy)phenyl)carbonyl-3-[4-[2-(piperidin-1-yl)ethoxy]phenylamino]-1H-1,2,4-triazole] | < 1 |  |  |
| CC(C)(C)Oc1ccc(C(=O)n2nc(Nc3ccc(OCCN4CCCCCC4)cc3)nc2N)cc1 [compound 322, 5-amino-1-(4-(tert-butoxy)phenyl)carbonyl-3-[4-[2-(azepan-1-yl)ethoxy]phenylamino]-1H-1,2,4-triazole] |  | < 1 |  |
| Nc1nc(Nc2ccc(OCCN3CCCC3)cc2)nn1C(=O)c1c(F)cccc1F [compound 289, 5-amino-1-(2,6-difluorophenyl)carbonyl-3-[4-[2-(pyrrolidin-1-yl)ethoxy]phenylamino]-1H-1,2,4-triazole] |  | > 20 |  |
| COc1ccc(C(=O)n2nc(Nc3ccc(OCCN4CCCCC4)cc3)nc2N)cc1OC [compound #21, 5-Amino-1-(3,4-(dimethoxy)phenyl)carbonyl-3-[4-[2-(piperidin-1-yl)ethoxy]phenylamino]-1H-1,2,4-triazole] |  | < 1 |  |
| CC(C)Oc1ccc(Nc2nc(N)n(C(=O)c3ccc4c(c3)NC(=O)C(C)(C)O4)n2)cc1 [compound 65, 5-amino-1-(2,2-dimethyl-2H-benzo[b][1,4]oxazin-3(4H)-on-6-yl)carbonyl-3-(4-(iso-propoxy)phenyl)amino-1H-1,2,4-triazole] |  |  | IC50 [5]: 1 to 10 µM |
| Nc1nc(Nc2ccc3c(c2)OCCO3)nn1C(=O)c1ccc(OCCN2CCCCC2)cc1 [compound 226] | 1 to 10 |  |  |
| Nc1nc(Nc2ccc3c(c2)OCCO3)nn1C(=O)c1cccc(Cl)c1 [compound 101, 5-amino-1-(3-(chloro)phenyl)carbonyl-3-(1,4-benzodioxan-6-yl)amino-1H-1,2,4-triazole] | 1 to 10 |  |  |
| N#Cc1ccc(C(=O)n2nc(Nc3ccc4c(c3)OCCO4)nc2N)cc1 [compound 245, 5-amino-1-(4-cyanophenyl)carbonyl-3-(1,4-benzodioxan-6-yl)amino-1H-1,2,4-triazole] | > 20 |  |  |
| CS(=O)(=O)N1CCC(Nc2nc(N)nn2C(=O)c2c(F)cccc2F)CC1 [compound 391, 3-amino-1-(2,6-difluorophenyl)carbonyl-5-(1-methylsulfonylpiperidin-4-yl)amino-1H-1,2,4-triazole] |  |  | IC50 (Table 6, Hela cells, Axl antibody cross-linking stimulation, phospho-Akt chemiluminescence): > 20 µM |
| Nc1nc(Nc2ccc(OCCN3CCCC3)cc2)nn1C(=O)c1cccc(-c2cccs2)c1 [compound 313, 5-amino-1-(3-(thien-2-yl)phenyl)carbonyl-3-[4-[2-(pyrrolidin-1-yl)ethoxy]phenylamino]-1H-1,2,4-triazole] |  | < 1 |  |
| Cc1ccc(C(=O)n2nc(Nc3ccc(OCCN4CCCC4)cc3)nc2N)s1 [compound 284, 5-amino-1-(5-methylthien-2-yl)carbonyl-3-[4-[2-(pyrrolidin-1-yl)ethoxy]phenylamino]-1H-1,2,4-triazole] |  |  | IC50 [5]: < 1 µM |
